Results reported in PMC8086144, “A novel peptide antagonist of the human growth hormone receptor” (The Journal of Biological Chemistry, 2021).

Molecular target: T1, hGHR (Homo sapiens, UniProt P10912)
T1 construct: previously reported to express high levels of endogenous hGHR; host or cells: SK-MEL-28, MALME-3M, IM9
T1 sequence (P10912 19-638): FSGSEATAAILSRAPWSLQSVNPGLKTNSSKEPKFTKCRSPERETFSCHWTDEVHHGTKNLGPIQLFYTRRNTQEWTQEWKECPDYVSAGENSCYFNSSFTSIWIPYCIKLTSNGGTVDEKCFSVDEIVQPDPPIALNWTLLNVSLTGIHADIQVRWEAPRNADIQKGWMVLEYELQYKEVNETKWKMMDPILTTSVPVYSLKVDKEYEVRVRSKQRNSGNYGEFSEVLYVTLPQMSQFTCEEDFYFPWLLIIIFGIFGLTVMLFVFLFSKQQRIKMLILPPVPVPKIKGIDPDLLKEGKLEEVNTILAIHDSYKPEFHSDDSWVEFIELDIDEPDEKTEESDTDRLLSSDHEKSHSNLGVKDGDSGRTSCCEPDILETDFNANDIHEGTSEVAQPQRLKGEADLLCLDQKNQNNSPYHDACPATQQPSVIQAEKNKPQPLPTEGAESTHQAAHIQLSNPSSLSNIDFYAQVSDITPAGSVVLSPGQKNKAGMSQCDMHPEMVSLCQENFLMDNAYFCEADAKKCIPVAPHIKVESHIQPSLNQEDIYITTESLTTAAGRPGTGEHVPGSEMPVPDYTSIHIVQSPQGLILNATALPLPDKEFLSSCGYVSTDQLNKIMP
Test: hGH-mediated pSTAT5 in SK-MEL-28 cells, Western blot
Assay type: cell-based
Conditions: 20 min, Western blot densitometry, n = 3
Procedure: SK-MEL-28, MALME-3M, and T84 cells were grown and maintained in Eagle's Minimal Essential Medium. IM9 and L cells were grown in RPMI-1640 media and Dulbecco's modified Eagle's medium, respectively. All growth media was supplemented with 10% fetal bovine serum and 1× antibiotic-antimycotic […] solution. Cells were grown at 37 °C under a 5% CO2 atmosphere in a humidified incubator, and growth media was replaced every 48 h during incubation. No hGH was present in or added to the growth media unless specifically indicated. […]
Following treatment, the cells were harvested at the indicated time points, and the total protein was extracted. […] Sample protein concentration was quantified using a Bradford assay with bovine serum albumin as the protein standard. Absorbance at 595 nm was measured using a Spectramax 250 multimode plate reader (Molecular Devices) and processed using SoftmaxPro v4.7.1 software.
Cytosolic fractions from treated cells were thawed on ice, and 80 μg protein was loaded onto polyacrylamide gels for separation by SDS-PAGE. […] Chemiluminescence signals were detected using a GelDoc (BioRad) fluorescence imager. […] Percent inhibition was then measured by subtracting the pSTAT5 band intensity in each lane from the pSTAT5 band intensity of hGH-treated samples. […]

suppression of hGH-mediated pSTAT5 (100 nM S1H with 2.5 nM hGH): 46%
suppression of hGH-mediated pSTAT5 (200 nM S1H with 2.5 nM hGH): 67%
Structure (SMILES): CC[C@H](C)[C@H](NC(=O)[C@H](Cc1ccc(O)cc1)NC(C)=O)C(=O)N1CCC[C@H]1C(=O)N[C@@H](CCCCN)C(=O)N[C@@H](CCC(=O)O)C(=O)N[C@@H](CCC(N)=O)C(=O)N[C@@H](CCCCN)C(=O)N[C@@H](Cc1ccc(O)cc1)C(=O)N[C@@H](CO)C(=O)N[C@@H](Cc1ccccc1)C(=O)N[C@@H](CC(C)C)C(=O)N[C@@H](CCC(N)=O)C(=O)N[C@@H](CC(N)=O)C(=O)N1CCC[C@H]1C(=O)N[C@@H](CCC(N)=O)C(=O)N[C@H](C(N)=O)[C@@H](C)O [S1H]
